Results from US8354265B2, “Chemicals promoting the growth of N-acylhomoserine lactone-degrading bacteria” (Centre National de la Recherche Scientifique, priority 2007, dated 2013).
Entries after “also recorded” stand apart in the source; their conditions may differ.

What was measured:
[1] = tested on: bacterial consortia; experiment: Inactivation of C6-HSL and OC8-HSL by mannitol, 6CL, GCL and HTN consortia; format: cell-based
Description: (§1) The Mannitol-, 6CL-, GCL-, and HTN-consortia were compared for their capacity to inactivated OC8-HSL, the major NAHL produced by the plant pathogen Erwinia carotovora subsp. atroseptica 6276, as well as for their biocontrol activity against this pathogen in potato maceration assay.

[2] = tested on: NAHL-degrading and NAHL-producing bacteria of potato rhizosphere; experiment: Two independent analyses of 6CL and GCL treatments on planted batches (FIG. 7); format: in vivo, Solanum tuberosum var. Allians
Description: FIG. 7: Percentage of NAHL-degrading and NAHL-producing strains in potato rhizosphere. […] An untreated batch was used as a control in the two independent sets of experiments. The mean of three replicates is shown. Statistically different values (Student t test; 0.05) are noted by different letters.
(§2) The non sterile batches (40×60×8 cm) contained 13 L of the nutritive solution Hydrobloom (Cellmax, UK) with Nitrogen at 0.80 g/L, Phosphore at 0.56 g/L and Potassium at 1.48 g/L as major components. The solution was diluted from a concentrated stock solution (×250) with non sterile water from the public water system. One hundred plants of Solanum tuberosum var. Allians, which were recovered from cultures performed under sterile conditions, were placed into holes (3 cm space to each other) of batch covers. Planted batches were placed in the greenhouse (Comité Nord Plants de Pomme de Terre, Bretteville-du-Grand-Caux) under natural light at 10-15° C. (night) and 25-30° C. (day). […] An untreated batch was used as a control. One gram of roots (fresh weight) was resuspended in 10 mL of sterile MgSO4 10 mM, diluted and spread on TSA and King B plates to isolate total cultivable bacteria and fluorescent Pseudomonas, respectively. Three samples were analyzed from each batch at each time D0, D14 and D28; from each sample, thirty isolates from TSA plates and thirty fluorescent isolates from King B plates were individually tested from production and inactivation of NAHL signal.
(§3) Bacterial isolates grown in 96-microwell plates were individually tested from production of NAHL with the A. tumefaciens biosensor NT1 (pZNLR4) and the inactivation of the C6-HSL signal, as described previously (d'Angelo-Picard et al. 2004).
An untreated batch was used as a control.

[3] = tested on: bacteria recovered from the consortia; experiment: NAHL production and inactivation by isolates recovered from the consortia, with rrs identification; format: cell-based
[4] = tested on: NAHL-degrading rhizobacteria; experiment: Diversity of NAHL-degrading rhizobacteria after 6CL and GCL treatments, rrs sequencing (Table 2); format: in vivo, Solanum tuberosum
Description: as §2
The 5′-end of the rrs gene was amplified with primers pA (5′-[…]) (SEQ ID NO:1) and 518r (5′-[…]) (SEQ ID NO:2), and sequenced with pA primer by GenomeExpress (Meylan, France). At least 400 bp were submitted to the NCBI database. Although some sequence comparisons authorized identification of isolates at the species level, only the genus level was retained in this study for homogeneity.
The isolates were identified by rrs-sequencing (Table 2). At D0, most of the NAHL-degrading isolates were identified as Delftia. However, at D14 and D28, the Agrobacterium isolates dominated in untreated batches, while they were not detected in the treated batches. In those, the more frequently counted bacteria were Delftia and Rhodococcus.

[5] = tested on: NAHL-degrading rhizobacteria of potato rhizosphere; experiment: Preliminary experiment in planted hydroponic batches: level and diversity of NAHL-degrading rhizobacteria (Table 1); format: in vivo, Solanum tuberosum var. Allians
Description: as §2, §3
At least 400 bp were submitted to the NCBI database.

[6] = tested on: NAHL-degrading bacteria in the nutritive solution; experiment: Ratio of NAHL-degrading bacteria in unplanted batches of nutritive solution; format: cell-based; settings: for percentage of NAHL-degrading bacteria in the nutritive solution: without plants
Description: as §2, §3
Allians was evaluated. The plants were cultivated in vitro under sterile conditions, then placed into batches in a greenhouse at Bretteville-du-Grand-Caux (France) in a non-sterile environment. Especially, a non-sterile nutritive solution was used and served as a source of naturally occurring bacteria. […] The ratio of NAHL-degrading bacteria in the nutritive solution was evaluated before the treatment and 14-day later. This percentage increased from 10±2 to 30±2 in the case of the 6CL-treated batch and from 10±2 to 70±2 in the GCL-treated batch. From the 6CL- and GCL-treated batches, 10 NAHL-degrading bacteria were identified by their rrs sequence: 9 belonged to the Delftia genus, the other one to the Rhodococcus genus.

[7] = tested on: Erwinia carotovora subsp. atroseptica 6276; experiment: Maceration assay on potato tubers (biocontrol activity of consortia); format: in vivo; settings: potato tubers infected with mix of Erwinia carotovora 6276 and consortia
Description: FIG. 6: Maceration assay on potato tubers.
as §1

[8] = tested on: NAHL-degrading rhizobacteria; experiment: Diversity of NAHL-degrading rhizobacteria after 6CL and GCL treatments, rrs sequencing (Table 2); format: in vivo, Solanum tuberosum; settings: isolates of treated batches
[9] = tested on: bacterial consortia originating from rhizospheric soil; experiment: C6-HSL inactivation by bacterial consortia enriched from rhizospheric soil; format: cell-based
[10] = tested on: bacterial consortia from unplanted soil; experiment: C6-HSL inactivation by bacterial consortia enriched from unplanted soil on the compound as sole carbon source; format: cell-based; settings: soil and rhizospheric samples; among 25 assayed molecules
[11] = 6CL- and GCL-treated batches together, rrs sequence

CCC1CCC(=O)O1 (centres unmarked) [GCL, gamma-caprolactone]
speed of C6-HSL signal inactivation versus Mannitol consortia [1]: inactivated more rapidly
speed of OC8-HSL signal inactivation versus Mannitol consortia [1]: inactivated more rapidly
cell density (CFU/g of root) ([2]; 14 days after application at 0.4 mL/L, two experiments): consistently increased
level of NAHL-degrading bacteria among fluorescent Pseudomonads ([2]; after GCL-treatments): no modification
percentage of NAHL-degrading bacteria among total cultivable bacteria ([2]; applied to hydroponic plant cultures (FIG. 7)): significant increase
NAHL-inactivating bacteria recovered from consortia [3]: recovered
NAHL-degrading isolates related to Chryseobacterium ([3]; 6CL and GCL consortia together): 10%
NAHL-degrading isolates related to Delftia ([3]; 6CL and GCL consortia together): 80 % of the identified strains
NAHL-degrading isolates related to Ralstonia ([3]; 6CL and GCL consortia together): 3%
NAHL-degrading isolates related to Rhodococcus ([3]; 6CL and GCL consortia together): 7%
NAHL-producing bacteria among isolates of the consortia ([3]; 280 isolates from 280 independent enrichments): none
rrs-identified NAHL-degraders: Delftia ([4]; D14 and D28, 0.1 mL/L): 16
rrs-identified NAHL-degraders: Others ([4]; D14 and D28, 0.1 mL/L): 2
rrs-identified NAHL-degraders: Pseudomonas ([4]; D14 and D28, 0.1 mL/L): 1
rrs-identified NAHL-degraders: Rhizobium ([4]; D14 and D28, 0.1 mL/L): 1
rrs-identified NAHL-degraders: Rhodococcus ([4]; D14 and D28, 0.1 mL/L): 60
rrs-identified NAHL-degraders: Delftia ([4]; D14 and D28, 0.4 mL/L): 9
rrs-identified NAHL-degraders: Pseudomonas ([4]; D14 and D28, 0.4 mL/L): 1
rrs-identified NAHL-degraders: Rhodococcus ([4]; D14 and D28, 0.4 mL/L): 96
percentage of A. tumefaciens isolates among the NAHL-degrading rhizobacteria ([4]; after GCL-treatments): decrease
Log CFU/gram of root (fresh weight) ([5]; D0 (before treatment)): 8.0 ± 7.5 Log CFU/gram of root (fresh we
NAHL degraders (%) ([5]; D0 (before treatment)): 16.7 ± 0.1 %
NAHL producers (%) ([5]; D0 (before treatment)): 6.7 ± 1.0%
rrs-identified NAHL-degraders: Delftia ([5]; D0, of 8 isolates): 3
rrs-identified NAHL-degraders: Pseudomonas ([5]; D0, of 8 isolates): 2
rrs-identified NAHL-degraders: Rhodococcus ([5]; D0, of 8 isolates): 3
Log CFU/gram of root (fresh weight) ([5]; D28, 0.1 mL/L): 10.5 ± 9.8 Log CFU/gram of root (fresh we
NAHL degraders (%) ([5]; D28, 0.1 mL/L): 33.3 ± 4.0 %
NAHL producers (%) ([5]; D28, 0.1 mL/L): 11.1 ± 1.5%
identified genera of NAHL-degrading bacteria ([5]; D28, 0.1 mL/L): 3
rrs-identified NAHL-degraders: Bacillus ([5]; D28, 0.1 mL/L, of 8 isolates): 1
rrs-identified NAHL-degraders: Delftia ([5]; D28, 0.1 mL/L, of 8 isolates): 2
rrs-identified NAHL-degraders: Rhodococcus ([5]; D28, 0.1 mL/L, of 8 isolates): 5
NAHL-degrading bacteria belonging to the Delftia genus (of 10 identified) [6, 11]: 9
NAHL-degrading bacteria belonging to the Rhodococcus genus (of 10 identified) [6, 11]: one
percentage of NAHL-degrading bacteria in the nutritive solution ([6]; 14-day after treatment at 1 mL/L): 70±2%
percentage of NAHL-degrading bacteria in the nutritive solution ([6]; before the treatment): 10±2%
biocontrol activity of the consortia against E. carotovora 6276 [7]: biocontrol activity was observed; also recorded: showed biocontrol activity
growth of Delftia and Rhodococcus isolates on the compound as a sole carbon source [8]: grew on GCL as a sole carbon source
activity of consortia towards C6-HSL (ranking) [9]: the most active
growth stimulation of NAHL-degrading bacteria after enrichment procedures [10]: stimulated the growth of NAHL-degrading bacteria
